Experimental data published in patent publication US8575357B2, “Substituted (thiazolyl-carbonyl)imidazolidinones and use thereof” (AiCuris GmbH & Co. KG, priority 2009, dated 2013).
Read-outs that look alike come from different tables or passages of the source.

What was measured:
reverse transcriptase = target: T1, reverse transcriptase (Human immunodeficiency virus type 1 group M subtype B, UniProt P04585); assay: Biochemical reverse transcriptase assay (Reverse Transcriptase Assay, colorimetric, Roche)
T1 construct: negative control (mixture without reverse transcriptase); purchased Roche Diagnostics GmbH, Mannheim, Germany
Experimental: The “Reverse Transcriptase Assay, colorimetric” (Roche Diagnostics GmbH, Mannheim, Germany) is used in accordance with the manufacturer's information. The test substances are dissolved in DMSO and are used in the test diluted in 5-fold steps (final DMSO concentration 1%). The resulting values of the photometric evaluation (405/492 nm) are less than 0.1 for the negative control (mixture without reverse transcriptase) and are in the region of 1.5 for the positive control (mixture without test substance). The IC50 values of the test substances are determined as the concentration of the test substance dilution at which the measured optical density is 50% of the positive control.

HIV-1LAI = assay: H9 assay with wild-type HIV-1 (HIV-1LAI supernatant infection, AlamarBlue); format: cell-based; conditions: Human immunodeficiency virus 1, 120 h, H9 cells, 10% FCS, 5 days
Experimental: For the mixture for a 96-well MTP, 3 million PBLs are pelleted, suspended in 1 ml of RPMI 1640 medium/10% FCS and incubated together with a suitable amount of HIV-1LAI (NIH AIDS Research & Reference Reagent Program, Germantown, USA) at 37° C. for 2 hours (pellet infection). Unadsorbed viruses are subsequently washed out with PBS, and the infected cells are pelleted again and suspended in 18 ml of RPMI 1640 medium/10% FCS/interleukin-2 (40 U/ml). 180 μl thereof are pipetted into each well of a white 96-well MTP with 20 μl of test substance in suitable dilution. Alternatively, after preparation of the substance dilutions in the MTP, the HIV is pipetted in together with the cells and is not washed out again (supernatant infection). In order to avoid edge effects, the wells at the edge of the MTP are not used for substance dilutions. The second vertical row of the MTP contains only infected cells (virus control) and the eleventh vertical row only uninfected cells (cell control), in each case in RPMI 1640 medium/10% FCS/interleukin-2 (40 U/ml). The other wells of the MTP contain the compounds of the invention in various concentrations starting from the third vertical row, from which the test substances are diluted in 3-fold steps up to the tenth vertical row 3^7-fold. The test substances are dissolved in DMSO, whereby the final DMSO concentration in the test mixture is 1%. The test mixtures are incubated at 37° C./5% CO2. After 5 and 7 days, 50 μl of cell-free supernatant are removed from each well to determine the amount of p24 present by means of a p24 ELISA (HIV-1 p24^CA Antigen Capture Assay Kit, NCI-Frederick Cancer Research and Development Center, Frederick, USA). From the resulting values of the photometric evaluation (450/620 nm) the EC50 values of the test substances are determined as the concentration at which the amount of p24 is 50% of the untreated infected cells.
Alternatively, H9 cells (ATCC, Wesel, Germany) are employed instead of PBLs for testing the test substances. H9 cells are incubated in RPMI 1640 medium with 2% or 10% FCS as a HIV-1LAI supernatant infection at 37° C./5% CO2, (20 μl of substance dilution and 80 μl of cells/virus per well) in accordance with the pattern described above for 5 days. Subsequently, 10 μl of AlamarBlue (Invitrogen, Karlsruhe, Germany) are added to each well, and the MTPs are incubated at 37° C. for 3 hours before the fluorimetric evaluation takes place (544/590 nm). The resulting values are about 40 000 for the untreated uninfected cells and about 7000 for the untreated infected cells. In the low concentration range, the EC50 values of the test substances are determined as the concentration at which the fluorescence is 50% of the untreated uninfected cells (in each case subtracting the values of the untreated infected cells). In addition, in the high concentration range, the CC50 values of the test substances are determined as the concentration at which the fluorescence is 50% of the untreated uninfected cells (in each case subtracting the values of the untreated infected cells).

[1] = tested on: HIV-1NL4-3 reporter virus, wild-type; assay: Light assay with wild-type HI reporter virus in MT4 7F2 cells; format: cell-based; conditions: Human immunodeficiency virus 1, 120 h, read-out: EC50 (nM) MT4 7F2 cells HIV-1NL4-M3 wt 2% FCS
Experimental: (§1) For the mixture for a 96-well MTP, 3 million MT4 7F2 cells are pelleted, suspended in 1 ml of RPMI 1640 medium without phenol red (Invitrogen, Karlsruhe, Germany)/10% FCS/10% AIM-V (Invitrogen, Karlsruhe, Germany) and incubated together with a suitable amount of the corresponding HIV-1NL4-3 reporter virus at 37° C. for 2 hours (pellet infection). Unadsorbed viruses are subsequently washed out with PBS, and the infected cells are pelleted again and suspended in 8 ml of RPMI 1640 medium without phenol red/2% or 10% FCS/10% AIM-V. 80 μl thereof are pipetted into each well of a white 96-well MTP with 20 μl of test substance in suitable dilution. To avoid edge effects, the wells on the edge of the MTP are not used for substance dilutions. The second vertical row of the MTP contains only infected cells (virus control) and the eleventh vertical row only uninfected cells (cell control), in each case in RPMI 1640 medium without phenol red/2% or 10% FCS/10% AIM-V. The other wells of the MTP contain the compounds of the invention in various concentrations starting from the third vertical row, from which the test substances are diluted in 3-fold steps up to the tenth vertical row 3^7-fold. The test substances are dissolved in DMSO, whereby the final DMSO concentration in the test mixture is 1%. The test mixtures are incubated at 37° C./5% CO2 for five days and, after the addition of 15 μl of Lu164 substrate (5 mg/ml coelenterazine dissolved in 30 μM glutathione/DMSO, 100 mM NaCl, 1M MES, 100 mM glutathione), evaluated by luminometry. The resulting values are in the region of 1 000 000 RLUs (relative light units) for the virus control and 300 to 400 RLUs for the cell control. The EC50 values of the test substances are determined as the concentration at which the virus replication measured in RLUs is 50% of the untreated infected cells.

[2] = tested on: HIV-1NL4-3 reporter virus, reverse transcriptase mutations K103N-Y181C; assay: Light assay with inhibitor-resistant HI reporter virus in MT4 7F2 cells; format: cell-based; conditions: Human immunodeficiency virus 1, 120 h, read-out: EC50 (nM) MT4 7F2 cells HIV-1NL4-M3 K103N-Y181C 2% FCS
Experimental: as §1

[3] = colorimetric RT assay, final DMSO 1%, read-out: IC50 (nM) RT assay

Row | Compound | IC50 (reverse transcriptase; [3]) | EC50 (HIV-1LAI) | EC50 [1] | EC50 [2] | IC50 (reverse transcriptase)
1 | O=C1CN(C(=O)c2nc(-c3cccc(Cl)c3)c(-c3cc(F)cc(Cl)c3)s2)CN1 [Example 3, 1-{[5-(3-Chloro-5-fluorophenyl)-4-(3-chlorophenyl)-1,3-thiazole-2-yl]carbonyl}imidazolidin-4-one] | 20 nM | 12 nM | 0.6 nM | 60 nM | –
2 | O=C1CN(C(=O)c2nc(-c3cccc(Cl)c3)c(-c3cccc(Cl)c3)s2)CN1 [Example 20, 1-{[4,5-Bis(3-chlorophenyl)-1,3-thiazole-2-yl]carbonyl}imidazolidin-4-one] | 47 nM | 7 nM | 1 nM | 149 nM | –
3 | O=C1CN(C(=O)c2nc(-c3ccc(F)c(Cl)c3)c(-c3cc(F)cc(Cl)c3)s2)CN1 [Example 1, 1-{[4-(3-Chloro-4-fluorophenyl)-5-(3-chloro-5-fluorophenyl)-1,3-thiazole-2-yl]carbonyl}imidazolidin-4-one] | 61 nM | 14 nM | 2 nM | 55 nM | –
4 | O=C1CN(C(=O)c2nc(-c3ccc(F)c(Cl)c3)c(-c3cccc(Cl)c3)s2)CN1 [Example 2, 1-{[4-(3-Chloro-4-fluorophenyl)-5-(3-chlorophenyl)-1,3-thiazole-2-yl]carbonyl}imidazolidin-4-one] | 17 nM | 30 nM | 4 nM | 91 nM | –
5 | N#Cc1cccc(-c2nc(C(=O)N3CNC(=O)C3)sc2-c2cc(F)cc(Cl)c2)c1 [Example 18, 3-{5-(3-Chloro-5-fluorophenyl)-2-[(4-oxoimidazolidin-1-yl)carbonyl]-1,3-thiazole-4-yl}benzenecarbonitrile] | – | 1 nM | 0.4 nM | 38 nM | –
6 | N#Cc1cc(F)cc(-c2sc(C(=O)N3CNC(=O)C3)nc2-c2ccc(F)c(Cl)c2)c1 [Example 11] | – | 4 nM | 5 nM | 69 nM | 13 nM
7 | N#Cc1cc(-c2nc(C(=O)N3CNC(=O)C3)sc2-c2cc(F)cc(Cl)c2)ccc1F [Example 13, 5-{5-(3-Chloro-5-fluorophenyl)-2-[(4-oxoimidazolidin-1-yl)carbonyl]-1,3-thiazole-4-yl}-2-fluorobenzenecarbonitrile] | – | 2 nM | 0.6 nM | 43 nM | –
8 | N#Cc1cccc(-c2sc(C(=O)N3CNC(=O)C3)nc2-c2ccc(F)c(Cl)c2)c1 [Example 10] | – | 5 nM | 4 nM | 70 nM | –
9 | N#Cc1cccc(-c2nc(C(=O)N3CNC(=O)C3)sc2-c2cccc(Cl)c2)c1 [Example 17] | – | 2 nM | 0.5 nM | 64 nM | –
